From the OligoGym collection come the findings set out here.

In one data set the target is ANGPTL2. The settings on record: ASO.
For the next data set, the target named is KRAS. Conditions: ASO.

Several values for one entry are separate records, joined by “and”; a condition that tells them apart may be missing. Equal entries are not always repeated. After the bases stand the sugars from the 5' end (letter, count) and the backbone: PS all phosphorothioate, else s phosphorothioate and o phosphodiester by linkage. Methylation of C is not given here. e = 2'-O-(2-methoxyethyl) (MOE); l = locked nucleic acid (LNA); k = constrained ethyl (cEt); d = 2'-deoxy (DNA)

Take “AAGTTGATAGTTTATCTCC (sugars l3 d14 l2, PS)”: the target mRNA inhibition in the data set with ANGPTL2 (5 µM) was 76.3%; with ANGPTL2 (25 µM), 83.8%.
The matching figures for “CCAGTTCCTGAAGAAGTT (sugars l2 d14 l2, PS)”: 16.3% and 16.7%.
The matching figures for “CCTTGCAAAATGGTGGTT (sugars l2 d14 l2, PS)”: 49.6% and 57.4%.
For the sequence “TGATGATGCGGTTGTAG (sugars l3 d12 l2, PS)”, the figures for the target mRNA inhibition in the data set with ANGPTL2 (5 µM) and in the data set with ANGPTL2 (25 µM) were 64.2% and 70.3%, respectively.
The matching figures for “CAGGCACACTAATGAGA (sugars l2 d12 l3, PS)”: 9.64% and 9.52%.
Turning to “ACAGAGACTAGGCATTT (sugars l3 d10 l4, PS)”, the figures for the target mRNA inhibition in the data set with ANGPTL2 (5 µM) and with ANGPTL2 (25 µM) were 74.1% and 83.9%, respectively.
The matching figures for GATGATGCGGTTGTAG (sugars l4 d10 l2, PS): 70% and 75.2%.
Consider “AGCTCAGTGGTGAGATGG (sugars l1 d15 l2, PS)”, for which the target mRNA inhibition in the data set with ANGPTL2 (5 µM) is 54.1%; in the data set with ANGPTL2 (25 µM) it was 54.8%.
As to “TATTAGCATCACTACTTT (sugars l4 d11 l3, PS)”, the target mRNA inhibition with ANGPTL2 (5 µM) turned out to be 48%; in the data set with ANGPTL2 (25 µM) it was 52.1%.
The matching figures for “GTGGGCAGGAGAAGGGAC (sugars l1 d15 l2, PS)”: 17.8% and -18.2%.
Consider “GCAGTTATCACACCACA (sugars l1 d13 l3, PS)”, for which the target mRNA inhibition was found to be 38.9% in the data set with ANGPTL2 (5 µM) and 44% in the data set with ANGPTL2 (25 µM).
The matching figures for “ACATAATGTTTCATGCT (sugars l4 d11 l2, PS)”: 46% and 45.8%.
The matching figures for “CAGGCCAACACTAACTCG (sugars l1 d14 l3, PS)”: 73.4% and 84.2%.
In the case of “CTTGATTTGTCAGCAG (sugars kddddddddddkekek, PS)”, the target mRNA inhibition in the data set with KRAS (A431, 0.037 µM) came out at 62%; with KRAS (A431, 2 µM), 45%.
Consider GTAATTAATCCATTTA (sugars k3 d10 k3, PS), for which, in the data set with KRAS (A431, 2 µM), the target mRNA inhibition was 15%.
With “TGATTTGTCAGCAGGA (sugars k3 d9 k3 e1, PS)”, the target mRNA inhibition with KRAS (A431, 0.185 µM) came out at 26%; with KRAS (A431, 0.556 µM), 52%; with KRAS (A431, 1.667 µM) it was 70%; with KRAS (A431, 2 µM), 63%; in the data set with KRAS (A431, 5 µM) it was 80%.
Take ACTTCATTGTTTAAAA (sugars k3 d10 k3, PS): in the data set with KRAS (A431, 2 µM), the target mRNA inhibition came to 0%.
On the same count and under the same terms, as for CTCTCTATGAAAGCTC (sugars k3 d10 k3, PS), the figure is 29%.
For “CCATTCAAAGTTCACA (sugars kkddddddddkekekk, PS)”, the target mRNA inhibition with KRAS (A431, 0.185 µM) is 0%; in the data set with KRAS (A431, 0.556 µM) it was 19%; with KRAS (A431, 1.667 µM), 31%; with KRAS (A431, 2 µM) it was 57%; with KRAS (A431, 5 µM) it was 39%.
In the case of TGTACTAGTATGCCTT (sugars k3 d10 k3, PS), the target mRNA inhibition with KRAS (A431, 0.185 µM) was 18% and 9%; in the data set with KRAS (A431, 1.667 µM), 61% and 43%; in the data set with KRAS (A431, 2 µM), 66%; in the data set with KRAS (A431, 5 µM), 74% and 64%.
On to “GTGTTTATGCAATGTT (sugars kkddddddddddkeke, PS)”, for which the target mRNA inhibition with KRAS (A431, 0.185 µM) was found to be 44%; in the data set with KRAS (A431, 0.556 µM), 71%; with KRAS (A431, 1.667 µM) it was 83%; with KRAS (A431, 2 µM) it was 73%; in the data set with KRAS (A431, 5 µM), 92%.
In the case of “CTTGATTTGTCAGCAG (sugars kkddddddddddkeke, PS)”, the target mRNA inhibition with KRAS (A431, 2 µM) turned out to be 54%.
Still for that read-out and setting: as for ACCATTCAAAGTTCAC (sugars k3 d10 k3, PS), the figure is 34%.
For “AGGAGTCTTTATAGTA (sugars kkdddddddddkekek, PS)”, the target mRNA inhibition in the data set with KRAS (A431, 2 µM) turned out to be 31%.
On the same count and under the same terms, the same measure for “TTGATTTGTCAGCAGG (sugars k3 d9 k3 e1, PS)”: 55% and 30%; for “TCCATTTATGTGACTA (sugars kkddddddddkekekk, PS)”: 29%.
Same read-out and setting: the same measure for TTCTGTCTATTCATAC (sugars k3 d10 k3, PS): 10%; for GGTTAGGGGAATTACA (sugars k3 d10 k3, PS): 26%.
As for “TGTTTATGCAATGTTA (sugars kkdddddddddkekek, PS)”, the target mRNA inhibition with KRAS (A431, 0.185 µM) came to 50%; in the data set with KRAS (A431, 0.556 µM), 46%; in the data set with KRAS (A431, 1.667 µM), 69%; with KRAS (A431, 2 µM), 56%; in the data set with KRAS (A431, 5 µM) it was 82%.
As to TTACTTTTTGACAAAT (sugars k3 d10 k3, PS), in the data set with KRAS (A431, 2 µM), the target mRNA inhibition came to 0%.
For the sequence “GTCCAGTGATACTTTC (sugars kkkddddddddkekek, PS)”, the target mRNA inhibition with KRAS (A431, 2 µM) was 21%.
Same read-out and setting: the same measure for TAACCAGTGTTAAGAG (sugars k3 d10 k3, PS): 40%.
Still for that read-out and setting: the same measure for “ACCATTCAAAGTTCAC (sugars kkddddddddkekekk, PS)”: 7%.
